# Laboratory results published in PubChem BioAssay AID375 (SRMLSC, 2006).
# Target: Pantothenate synthetase (Mycobacterium tuberculosis (strain ATCC 25618 / H37Rv)) (UniProt P9WIL5)
# Assay: Coupled enzyme confirmation of inhibitors against recombinant Mtb PanC (AID 375)
# Settings: coupled enzyme assay, measured here: PanC IC50 repeat trials
# Sequence of Pantothenate synthetase (Mycobacterium tuberculosis (strain ATCC 25618 / H37Rv)) (P9WIL5 whole entry, looked up): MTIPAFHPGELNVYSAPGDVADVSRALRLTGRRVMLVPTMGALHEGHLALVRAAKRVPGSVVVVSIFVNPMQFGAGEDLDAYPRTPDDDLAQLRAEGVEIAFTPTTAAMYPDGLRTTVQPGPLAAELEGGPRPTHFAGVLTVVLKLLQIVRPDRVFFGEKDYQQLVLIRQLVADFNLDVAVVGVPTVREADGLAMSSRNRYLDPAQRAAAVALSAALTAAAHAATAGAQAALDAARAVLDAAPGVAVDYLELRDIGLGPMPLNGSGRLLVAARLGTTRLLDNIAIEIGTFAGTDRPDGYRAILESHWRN
row,SMILES,IC50 [µM]
1,Cc1ccccc1Cn1nc(C)c(NC(=O)c2noc3c2CC(C(C)(C)C)CC3)c1C (stereo not drawn),> 100
2,Cc1cc(NC(=O)c2noc3c2CCCCC3)nn1Cc1ccc(Cl)cc1,> 100
3,Cc1ccc(Cn2ccc(NC(=O)c3cc(-c4cccc(Cl)c4)on3)n2)cc1,> 100
4,Cc1cc(C(=O)Nc2cc(C)n(Cc3ccc(Cl)cc3)n2)no1,> 100
5,COc1ccc(-c2cc(C(=O)Nc3cc(C)n(Cc4ccc(Cl)cc4)n3)no2)cc1OC,> 100
6,Cc1ccccc1Cn1cc(NC(=O)c2noc3c2CC(C(C)(C)C)CC3)cn1 (stereo not drawn),2.56
7,COc1ccccc1-c1cc(C(=O)Nc2cc(C)n(Cc3ccc(Cl)cc3)n2)no1,> 100
8,CC(C)(C)C1CCc2onc(C(=O)Nc3cnn(Cc4ccc(F)cc4)c3)c2C1 (stereo not drawn),1.71
9,COc1ccc2c(c1)CCc1c(C(=O)Nc3ccn(Cc4ccc(C)cc4)n3)noc1-2,> 100
10,COc1ccc2c(c1)CCc1c(C(=O)Nc3cc(C)n(Cc4ccc(Cl)cc4)n3)noc1-2,> 100
11,Cc1ccc(Cn2ccc(NC(=O)c3noc4c3CCCCC4)n2)cc1,> 100
12,Cc1ccc(Cn2ccc(NC(=O)c3cc(-c4ccccc4)on3)n2)cc1,> 100
13,Cc1cc(NC(=O)c2cc(-c3cccs3)on2)nn1Cc1ccc(Cl)cc1,> 100
14,COc1ccc(OC)c(-c2cc(C(=O)Nc3cc(C)n(Cc4ccc(Cl)cc4)n3)no2)c1,> 100
15,COc1cccc(-c2cc(C(=O)Nc3cc(C)n(Cc4ccc(Cl)cc4)n3)no2)c1,> 100
16,Cc1ccc(Cn2ccc(NC(=O)c3noc4c3CCCC4)n2)cc1,> 100
17,Cc1cc(NC(=O)c2cc(-c3ccco3)on2)nn1Cc1ccc(Cl)cc1,> 100
18,Cc1cc(NC(=O)c2noc3c2CCCC3)nn1Cc1ccc(Cl)cc1,> 100
19,Cc1ccc(Cn2ccc(NC(=O)c3cc(-c4cccs4)on3)n2)cc1,> 100
20,Cc1ccc(Cn2ccc(NC(=O)c3cc(-c4ccc(F)cc4)on3)n2)cc1,> 100
21,Cc1ccc(Cn2ccc(NC(=O)c3cc(-c4ccco4)on3)n2)cc1,> 100
22,Cc1ccc(Cn2ccc(NC(=O)c3cc(-c4ccc(Cl)cc4)on3)n2)cc1,> 100
23,Cc1ccc(Cn2ccc(NC(=O)c3cc(-c4ccc(Br)cc4)on3)n2)cc1,> 100
